Test results taken from article PMC11944389, “Electrochemical Analysis and Inhibition Assay of Immune-Modulating Enzyme, Indoleamine 2,3-Dioxygenase” (Pharmaceuticals, 2025).

Target: T1, human indoleamine 2,3-dioxygenase 1 (hIDO1) (Homo sapiens, UniProt P14902)
T1 construct: gene IDO1; full-length hIDO1
Experiment: electrochemical inhibition assay (voltammetry, purified hIDO1 immobilized on nanoporous gold electrode, with O2 and Trp)
Format: biochemical

T1 sequence (P14902 whole entry): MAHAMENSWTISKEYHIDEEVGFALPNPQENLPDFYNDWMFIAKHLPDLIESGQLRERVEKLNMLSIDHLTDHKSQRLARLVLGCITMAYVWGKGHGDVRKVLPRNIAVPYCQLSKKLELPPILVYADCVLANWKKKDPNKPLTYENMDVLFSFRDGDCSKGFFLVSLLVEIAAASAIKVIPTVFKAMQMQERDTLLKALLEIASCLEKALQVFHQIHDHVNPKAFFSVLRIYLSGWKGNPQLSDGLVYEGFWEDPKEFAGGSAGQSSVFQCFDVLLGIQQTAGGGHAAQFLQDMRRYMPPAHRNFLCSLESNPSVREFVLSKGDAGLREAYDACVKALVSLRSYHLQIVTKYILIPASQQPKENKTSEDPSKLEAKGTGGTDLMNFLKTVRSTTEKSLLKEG

CC(C)(C)c1nc(CN2CCN(CC(O)c3ccccc3)CC2)no1 (racemic) [MTS-7, 2-(4-{[5-(2-methyl-2-propanyl)-1,2,4-oxadiazol-3-yl]methyl}-1-piperazinyl)-1-phenylethanol]
IC50: ~10 nM
